How the values were obtained:
egg white albumin = molecular target: T1, egg white albumin (Gallus gallus, UniProt P01012); assay: Affinity test by circular dichroism (CD) titration with albumin; assay type: binding; settings: dye preparation in Ficoll 4% in a phosphate buffer (sterilised)
T1 construct: from tissue; host or cells: egg white
T1 sequence (P01012 1-386): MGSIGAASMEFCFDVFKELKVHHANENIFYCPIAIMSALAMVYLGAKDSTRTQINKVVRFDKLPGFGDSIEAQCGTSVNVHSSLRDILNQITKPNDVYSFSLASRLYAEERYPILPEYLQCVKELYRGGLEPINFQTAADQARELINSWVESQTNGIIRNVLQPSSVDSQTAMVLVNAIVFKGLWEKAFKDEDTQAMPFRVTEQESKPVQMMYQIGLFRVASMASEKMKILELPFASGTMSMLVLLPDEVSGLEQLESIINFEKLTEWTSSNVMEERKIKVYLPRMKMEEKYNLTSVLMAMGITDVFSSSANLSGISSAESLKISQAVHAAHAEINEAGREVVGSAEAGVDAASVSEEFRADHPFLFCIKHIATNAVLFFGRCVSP
Description: In fact, even in this sector, one of the most used dyes today is BBG. However, the Applicant has realised that although it can dye proteins, BBG actually has a relatively low affinity with the self-same proteins. […] It should be noticed that, to carry out the tests, the commercial BBG with a purity of 80% was preliminarily purified and the CD spectra were measured in the 800-400 nm region in the presence of increasing quantities of albumin. Finally, in the known way, the value of the association constant was determined using a non-linear regression of the intensity of the dichroic signal expressed in ΔA (AL-AR, where AL and AR respectively indicate the absorbency of the preparation as regards the two circularly polarized light waves used for the circular dichroism study, the left wave and the right wave) depending on the concentration of the egg white albumin, used as a reference. However, on this point what is indicated in the subsequent Affinity Tests section should also be considered. […]
Affinity was determined by means of CD (circular dichroism) spectroscopy. The CD spectra were measured in the 800-400 nm region in the presence of increasing quantities of egg white albumin which, as is known, for analyses of this type is commonly considered to be representative of proteins in general. […]

[1] = equal to 0.03% w/v; DIN EN ISO 10993; cited from earlier work

## CCOc1ccc(Nc2ccc(/C(=C3C=C/C(=[N+](/CC)Cc4cccc(S(=O)(=O)[O-])c4)C=C/3C)c3ccc(N(CC)Cc4cccc(S(=O)(=O)O)c4)cc3C)cc2)cc1 [BBG-250, Brilliant Blue G 250]
Egg white albumin
  association constant Ka: approximately 60,000 M^−1
[1]
  concentration at which considered not to be cytotoxic: ≤ 0.3 g/I

Reference: patent publication US20180104361A1, “DYE MOLECULE AND DYE PREPARATIONS, IN PARTICULAR FOR USE IN SURGICAL METHODS OF OPHTHALMIC SURGERY AND FOR DYEING PROTEINS” (AL.CHI.MI.A. S.R.L., priority 2015, published 2018)
